The values below come from US9393271B2, “GHRH agonists for islet cell transplantation and function and the treatment of diabetes” (UNIVERSITY OF MIAMI, priority 2012, dated 2016).

The test system of experiment [1] is GH level. The experiment is described as follows: In vivo endocrine activity (GH release), subcutaneous administration. The settings on record: rat, s.c. Here is the method: Subcutaneous Administration. Adult male rats were used and anesthetized with pentobarbital (6 mg/100 g, b.w.), by i.p. injection. […] Blood samples were taken from the jugular vein 5, 15 and/or 30 minutes after the injection. The blood samples were centrifuged, plasma was removed and the GH level was measured by ELISA. The results are summarized in terms of potency in Table 9.

Experiment [2] concerns INS-1 cells. In words: INS-1 apoptosis, caspase 3/7 activity (Caspase-Glo 3/7). The experiment is classed as cell-based, rat. The settings on record: 24 hrs. Here is the method: (§1) Rat insulinoma cells (INS-1) were cultured in RPMI Medium 1640 (PAA) containing 2 mM L-glutamine, 10% FBS, 1 mM Na-pyruvate, 50 μM 2-mercaptoethanol, and 100 U/mL penicillin/streptomycin (Gibco) at 37° C. in a 5% CO2 humidified incubator. Medium was exchanged every second day and cells were passaged once per week. INS-1 cells were treated with the GHRH agonist P-27403 at concentrations from 10^−7 to 10^−9 M for 24 hrs and was analyzed for viability and apoptosis. Viability was assessed using CellTiter 96 AQueous One Solution Cell Proliferation Assay (Promega) according to the manufacturer's instructions. Apoptosis was assayed by determination of caspase 3/7 activity using Caspase-Glo 3/7 Assay (Promega) according to manufacturer's instructions.
INS-1 cells were grown for 72 h before experimentation. Cells were treated with various GHRH agonist peptides at different concentrations or with 0.1% (vol/vol) DMSO as control for 24 h, 48 h and 72 h. Apoptosis was assayed by determination of caspase 3/7 activity using Caspase-Glo 3/7 Assay (Promega) according to the manufacturer's instructions.

For experiment [3], the system named is INS-1 cells. In words: INS-1 cell viability (CellTiter 96 AQueous One Solution). It counts as cell-based, rat. The conditions noted are these: 10^-7 to 10^-9 M, 24 hrs. Here is the method:
as §1
INS-1 cells were grown for 72 hours before experimentation. Cells were treated with different GHRH agonist peptides (MR-356/P-20356, MR-361/P-20361, MR-367/P-20367, MR-403/P-27403, MR-409/P-27409, MR-502/P-25502) at different concentrations (10^−6-10^−10 M) or with 0.1% (vol/vol) DMSO as control for 24 h, 48 h and 72 h. Viability was assessed using CellTiter 96 AQueous One Solution Cell Proliferation Assay (Promega) according to the manufacturer's instructions. Treatment of INS-1 cells with GHRH agonist peptides for 72 h improved cell viability. Cell viability was expressed as percent of cells treated with control DMSO (FIG. 7).

The target of experiment [4] is T1, GHRH receptor (human pituitary membrane homogenates) (Homo sapiens, UniProt Q02643).
T1 sequence (Q02643 23-423): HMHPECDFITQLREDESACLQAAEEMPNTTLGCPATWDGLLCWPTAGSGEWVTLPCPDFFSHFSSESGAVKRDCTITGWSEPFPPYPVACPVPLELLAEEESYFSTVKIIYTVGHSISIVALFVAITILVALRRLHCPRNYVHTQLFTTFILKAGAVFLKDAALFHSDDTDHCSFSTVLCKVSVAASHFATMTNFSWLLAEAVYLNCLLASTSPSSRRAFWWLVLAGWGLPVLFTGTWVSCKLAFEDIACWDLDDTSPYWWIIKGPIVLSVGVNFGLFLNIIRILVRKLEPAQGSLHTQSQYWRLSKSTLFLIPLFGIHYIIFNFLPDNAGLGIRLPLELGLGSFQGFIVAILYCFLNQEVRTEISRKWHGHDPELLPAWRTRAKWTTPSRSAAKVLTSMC
In words: GHRH receptor binding, ligand competition with 125I-labeled JV-1-42 (Table 7). On the set-up: Normal human pituitaries were purchased from the National Hormone and Peptide Program; tissue National Hormone and Peptide Program (A. F. Parlow, Harbor-UCLA Medical Center, Torrance, Calif.); host or cells: normal human pituitary, membrane fraction / homogenate. The conditions noted are these: JI-38 = 1.

Experiment [5] concerns GH level. In words: In vivo endocrine activity (GH release), intravenous administration. The settings on record: rat. Here is the method:
In vivo tests on endocrine activity of new GHRH agonists (Intravenous administration). For in vivo tests based on intravenous administration, adult male Sprague-Dawley rats were anesthetized with pentobarbital (6 mg/100/g, b.w.), and GHRH agonists were injected 20 minutes after the injection of pentobarbital. Blood samples were taken from the jugular vein (pretreated level), immediately after hGHRH(1-29)NH2 injection (as a control) or after hGHRH analogs injection. Blood samples were taken from the jugular vein 5, 15 and 30 minutes after the injection. The blood samples were centrifuged, plasma was removed and the GH level was measured by ELISA.

Experiment [6] relates to INS-1 cells. The experiment is described as follows: INS-1 proliferation (BrdU Cell Proliferation Assay). It counts as cell-based, rat. The procedure:
For determination of proliferation activity, BrdU incorporation was performed in INS-1 cells following exposure to P-27403. Proliferation was measured using BrdU Cell Proliferation Assay (Millipore) following the manufacturer's description. The maximal enhancement in proliferation rate of 16% compared to control was found at 10^−8 M concentration of P-27403 (FIG. 1C).
INS-1 cells were grown for 72 h before experimentation. Cells were treated with GHRH agonists MR356, MR367, and MR403 at different concentrations or with 0.1% (vol/vol) DMSO as control for 24 h, 48 h and 72 h. Proliferation was measured using BrdU Cell Proliferation Assay (Millipore) following the manufacturer's description.

The next experiment has as its system rat islets. The experiment is described as follows: Viability of rat islets alone or in co-culture with adrenal cells. It counts as cell-based. The settings on record: rat islets alone, 10^-8 M, 24 hrs. Here is the method: Pancreatic islets were isolated from female Wistar rats as described in prior art, and according to guidelines established by the University Institutional Animal Care and Use Committee. Briefly, animals were anesthetized by 3% isoflurane and digestion solution (Collagenase V; Sigma-Aldrich) was injected via the pancreatic duct. Islets were isolated by discontinuous Ficoll gradient centrifugation (Sigma-Aldrich). Isolated islets were cultured in RPMI 1640 (PAA) supplemented with 10% FBS at 37° C. in a 5% CO2 atmosphere prior to further experimentation. Yield and purity of islets were determined by microscopic sizing after staining with dithizone (Sigma-Aldrich) as previously described.
Female Wistar rats were used as adrenal donors according to guidelines established by the University Institutional Animal Care and Use Committee. After euthanization, the adrenal glands were rapidly removed and kept in PBS at 4° C. After removal of adipose tissue, the capsule was removed. The tissue was then incubated at 37° C. in PBS containing collagenase type II (2.0 mg/ml; Sigma-Aldrich) and DNase (0.15 mg/ml; Sigma-Aldrich). After incubation for 30 min, the digestion was stopped by adding cold PBS. […]
Isolated rat islets and co-cultured islets were treated with P-27403 at a concentration of 10^−8 M or with 0.1% DMSO as control for 24 hrs, and then analyzed for viability. […]

The structures appear in SMILES notation. Non-standard residues stand in square brackets, D forms with d. Residues, ends and D or L forms follow the SMILES beside them. NMeY = CN[C@@H](Cc1ccc(O)cc1)C(=O)O; Nle = CCCC[C@H](N)C(=O)O; Orn = NCCC[C@H](N)C(=O)O; Abu = CC[C@H](N)C(=O)O

As for `CCCC[C@H](NC(=O)[C@@H](NC(=O)[C@H](CC(=O)O)NC(=O)[C@H](CCC(N)=O)NC(=O)[C@H](CC(C)C)NC(=O)[C@H](CC(C)C)NC(=O)[C@H](CCCN)NC(=O)[C@H](CCCNC(=N)N)NC(=O)[C@H](C)NC(=O)[C@H](CO)NC(=O)[C@H](CC(C)C)NC(=O)[C@H](CCC(N)=O)NC(=O)[C@H](CC)NC(=O)[C@H](CC(C)C)NC(=O)[C@@H](NC(=O)[C@H](CCCN)NC(=O)[C@H](CCCNC(=N)N)NC(=O)[C@H](Cc1ccc(O)cc1)NC(=O)[C@H](CO)NC(=O)[C@H](CCC(N)=O)NC(=O)[C@@H](NC(=O)[C@H](Cc1ccccc1)NC(=O)[C@@H](NC(=O)[C@H](C)NC(=O)[C@H](CC(=O)O)NC(=O)[C@@H](C)NC(=O)[C@H](Cc1ccc(O)cc1)NC)[C@@H](C)CC)[C@@H](C)O)C(C)C)[C@@H](C)CC)C(=O)N[C@@H](CC(=O)O)C(=O)N[C@@H](CCCNC(=N)N)C(=O)NC` [Peptide P-27403, [N—Me-Tyr^1, D-Ala^2, Gln^8, Orn^12, Abu^15, Orn^21, Nle^27, Asp^28]hGHRH(1-29)NH—CH3] (H-[NMeY][dA]DAIFTQSYR[Orn]VL[Abu]QLSAR[Orn]LLQDI[Nle]DR-NHMe), the “Stimulation of growth hormone levels after s.c. administration (comparison in words)” value with GH level [1] was “stimulated greater growth hormone levels than hGHRH or JI-38”. Besides, the “Apoptosis, caspase 3/7 activity” value in the experiment on INS-1 cells [2] (10^-7 to 10^-9 M) was “overall reduction of apoptosis”. Further, the “Reduction of apoptosis (caspases 3/7 activity)” value in the experiment on INS-1 cells [2] (10^-8 M) came out at 14%; in the experiment on INS-1 cells [2] (10^-9 M), 18%. In addition, the “Viability compared to control” value with INS-1 cells [3] is “increased viability at all concentrations used”. Moreover, the “Relative affinitiy (Binding potency) vs JI-38” value in experiment [4] is reported as 27.19. Moreover, the “Stimulation of growth hormone levels after i.v. administration (comparison in words)” value in the experiment with GH level [5] is given as “most potent”. For the same molecule, in the experiment with INS-1 cells [6] (10^-8 M, 24 hrs), the “Enhancement in proliferation rate compared to control” value came to 16%. The “Cell proliferation compared to control” value in the experiment with INS-1 cells [6] (different concentrations, 24 h, 48 h and 72 h) was “significantly induced cell proliferation”. Besides, the “Islet viability” value in the experiment with rat islets is given as “increase in viability”; in the experiment with rat islets (listed as MR403), “increase of viability”.
